For 30 compounds, IC50 results are on record in patent US11214565B2, “Compound, compositions, and methods” (Denali Therapeutics Inc., priority 2015, dated 2022).

As a reminder, the IC50 is the point on the concentration scale where inhibition reaches its midpoint. A low value points to higher potency.

The assay has as its target LRRK2 G2019S enzyme (Homo sapiens (Human), UniProt Q5S007, G2019S). The assay can be described thus: LRRK2 G2019S TR-FRET biochemical kinase assay (LRRKtide substrate). Particulars: 5 nM LRRK2, 134 μM ATP, 60 minute reaction, 23° C. Here is the method:
LRRK2 G2019S enzyme, Substrate (LRRKtide), ATP, TR-FRET dilution buffer, pLRRKtide antibody, 384-well assay plate, and DMSO.
50 mM Tris pH 7.5, 10 mM MgCl2, 1 mM EGTA, 0.01% Brij-35, 2 mM DTT, 5 nM LRRK2, 134 μM ATP, 60 minute reaction time, 23° C. reaction temperature, and 10 μL total reaction volume.
1×TR-FRET dilution buffer, 10 mM EDTA, 2 nM antibody, 23° C. reaction temperature, and 10 μL total reaction volume.
Compound solutions were prepared by initially diluting to 1 mM with DMSO. 35 μL of reference compound solution, 35 μL of test compound solution, and 35 μL HPE were successively added to the source plate (384-well assay plate, Labcyte). The plates were centrifuged at 2500 rpm for 1 minute and sealed in foil. POD was used to perform a 3.162 fold serial dilution and 100 nL of reference compound solution, test compound solution, HPE and ZPE were transferred to assay plates. The assay plate was centrifuged at 2500 rpm for 1 minute, and sealed with foil.
To perform the enzyme reaction, 5 μL of LRRKtide substrate and kinase mixture in assay buffer was added to all wells of the assay plate. The plate was centrifuged to concentrate the mixture at the bottom of the wells. The assay plate was incubated at 23° C. for 20 minutes. Following incubation, 5 μL of 2×ATP in assay buffer was added to each well, and plates were centrifuged to concentrate the mixture at the bottom of the wells. The plate was incubated at 23° C. for 60 minutes.
To perform the detection of the reaction, EDTA completely mixed in TR-FRET dilution buffer was added to antibody reagent. 10 μL of detection reagent was added to all wells of each well of the assay-plate and the plate was centrifuged to concentrate the mixture at the bottom of the wells. The plate was then incubated at 23° C. for 60 minutes. Plates were read on Perkin Elmer Envision 2104 instrument in TR-FRET mode using a 340 nm excitation filter, 520 nm fluorescence emission filter, and 490 or 495 nm terbium emission filter.
B-2, C2, and D-4 respectively.

LRRK2 G2019S enzyme, sequence (Q5S007 whole entry G2019S): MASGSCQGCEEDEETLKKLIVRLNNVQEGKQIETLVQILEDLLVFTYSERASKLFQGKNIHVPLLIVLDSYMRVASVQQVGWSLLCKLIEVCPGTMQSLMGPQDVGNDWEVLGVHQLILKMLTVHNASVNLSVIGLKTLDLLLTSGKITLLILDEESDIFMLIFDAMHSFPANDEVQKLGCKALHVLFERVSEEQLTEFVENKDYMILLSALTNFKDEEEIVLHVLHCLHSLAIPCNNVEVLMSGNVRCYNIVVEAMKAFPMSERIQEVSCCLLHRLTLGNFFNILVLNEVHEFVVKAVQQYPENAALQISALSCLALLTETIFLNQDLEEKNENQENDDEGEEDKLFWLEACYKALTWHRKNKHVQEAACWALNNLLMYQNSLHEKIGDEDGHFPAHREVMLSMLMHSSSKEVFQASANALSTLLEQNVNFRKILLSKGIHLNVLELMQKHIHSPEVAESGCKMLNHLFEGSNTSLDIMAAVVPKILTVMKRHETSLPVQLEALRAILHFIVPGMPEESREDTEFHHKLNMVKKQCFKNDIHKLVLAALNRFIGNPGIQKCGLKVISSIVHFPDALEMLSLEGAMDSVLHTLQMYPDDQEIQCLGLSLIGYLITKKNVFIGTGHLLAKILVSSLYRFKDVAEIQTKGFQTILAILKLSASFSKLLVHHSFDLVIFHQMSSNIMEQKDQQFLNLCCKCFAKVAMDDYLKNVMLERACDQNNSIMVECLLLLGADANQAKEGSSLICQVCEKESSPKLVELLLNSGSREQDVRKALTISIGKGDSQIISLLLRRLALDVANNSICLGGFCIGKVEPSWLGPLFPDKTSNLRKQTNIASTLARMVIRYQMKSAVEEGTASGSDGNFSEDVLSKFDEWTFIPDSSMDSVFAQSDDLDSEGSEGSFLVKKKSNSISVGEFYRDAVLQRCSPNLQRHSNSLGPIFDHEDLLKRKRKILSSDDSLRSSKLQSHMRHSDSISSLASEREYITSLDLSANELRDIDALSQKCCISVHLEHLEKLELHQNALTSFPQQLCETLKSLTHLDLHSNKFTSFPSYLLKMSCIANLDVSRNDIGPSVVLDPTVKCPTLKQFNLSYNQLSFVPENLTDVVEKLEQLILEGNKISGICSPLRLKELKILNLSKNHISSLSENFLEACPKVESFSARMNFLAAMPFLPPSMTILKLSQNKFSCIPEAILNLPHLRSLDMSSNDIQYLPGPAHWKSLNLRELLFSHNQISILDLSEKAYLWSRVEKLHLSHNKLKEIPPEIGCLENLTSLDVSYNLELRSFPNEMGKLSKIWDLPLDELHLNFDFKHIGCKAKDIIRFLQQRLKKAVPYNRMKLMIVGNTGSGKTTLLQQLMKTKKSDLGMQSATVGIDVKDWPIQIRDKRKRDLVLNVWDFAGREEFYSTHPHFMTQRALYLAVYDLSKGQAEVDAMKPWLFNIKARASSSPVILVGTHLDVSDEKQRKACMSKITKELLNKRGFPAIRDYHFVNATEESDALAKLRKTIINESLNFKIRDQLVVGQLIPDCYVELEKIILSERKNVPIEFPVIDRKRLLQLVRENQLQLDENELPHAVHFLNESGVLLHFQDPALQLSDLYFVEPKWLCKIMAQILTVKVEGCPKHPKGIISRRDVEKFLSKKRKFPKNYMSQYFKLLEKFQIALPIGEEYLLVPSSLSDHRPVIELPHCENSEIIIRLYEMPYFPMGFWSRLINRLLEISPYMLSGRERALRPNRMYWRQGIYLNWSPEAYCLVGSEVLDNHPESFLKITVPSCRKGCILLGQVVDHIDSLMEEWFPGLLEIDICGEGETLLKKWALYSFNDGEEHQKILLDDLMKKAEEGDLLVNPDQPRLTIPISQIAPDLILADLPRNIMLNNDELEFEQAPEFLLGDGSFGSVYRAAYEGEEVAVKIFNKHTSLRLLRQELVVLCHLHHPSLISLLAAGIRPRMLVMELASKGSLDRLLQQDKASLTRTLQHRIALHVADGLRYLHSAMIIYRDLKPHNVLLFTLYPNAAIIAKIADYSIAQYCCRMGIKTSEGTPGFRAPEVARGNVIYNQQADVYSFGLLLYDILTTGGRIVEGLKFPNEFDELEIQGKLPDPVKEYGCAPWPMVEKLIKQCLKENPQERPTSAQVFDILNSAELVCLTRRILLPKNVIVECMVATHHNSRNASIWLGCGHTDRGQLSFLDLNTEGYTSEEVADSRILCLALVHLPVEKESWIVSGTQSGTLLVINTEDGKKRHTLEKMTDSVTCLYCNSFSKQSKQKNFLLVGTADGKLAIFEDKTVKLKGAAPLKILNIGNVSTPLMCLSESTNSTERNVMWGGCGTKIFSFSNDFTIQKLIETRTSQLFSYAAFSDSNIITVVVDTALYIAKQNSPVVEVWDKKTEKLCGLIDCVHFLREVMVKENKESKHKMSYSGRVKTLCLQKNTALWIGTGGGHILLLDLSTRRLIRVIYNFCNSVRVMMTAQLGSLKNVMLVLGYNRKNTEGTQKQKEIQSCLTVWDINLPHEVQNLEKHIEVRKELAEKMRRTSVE

For the setting “Table D-4”, `CCNc1nc(Nc2cnn(C3CCn4ccnc43)c2C)ncc1C(F)(F)F` (racemic) [Compound D-22, N2-(1-(6,7-dihydro-5H-pyrrolo[1,2-a]imidazol-7-yl)-5-methyl-1H-pyrazol-4-yl)-N4-ethyl-5-(trifluoromethyl)pyrimidine-2,4-diamine] yielded an IC50 below 30 nM.

The compound `Cc1nn(C(C)(C)C#N)cc1Nc1ncc(C(F)(F)F)c([C@@H]2C[C@H]2F)n1` (single isomer, unassigned) [Compound A-12, 2-(4-((4-(2-fluorocyclopropyl)-5-(trifluoromethyl)pyrimidin-2-yl)amino)-3-methyl-1H-pyrazol-1-yl)-2-methylpropanenitrile] gave an IC50 (Table A-2) above 60 nM.

Under “Table A-2”, `Cc1nn(C(C)(C)C#N)cc1Nc1ncc(C(F)(F)F)c([C@H]2C[C@@H]2F)n1` (single isomer, unassigned) [Compound A-13, 2-(4-((4-(2-fluorocyclopropyl)-5-(trifluoromethyl)pyrimidin-2-yl)amino)-3-methyl-1H-pyrazol-1-yl)-2-methylpropanenitrile] yielded an IC50 above 60 nM.

Where the note is “Table A-2”, `CC1(O)CCCC1n1ncc(Nc2ncc(C(F)(F)F)c(C3CC3)n2)c1Cl` (single isomer, unassigned) [Compound A-49, 2-(5-chloro-4-((4-cyclopropyl-5-(trifluoromethyl)pyrimidin-2-yl)amino)-1H-pyrazol-1-yl)-1-methylcyclopentanol] came in with an IC50 above 60 nM.

For `CC1(O)CCCC1n1ncc(Nc2ncc(C(F)(F)F)c(C3CC3)n2)c1Cl` (single isomer, unassigned) [Compound A-50, 2-(5-chloro-4-((4-cyclopropyl-5-(trifluoromethyl)pyrimidin-2-yl)amino)-1H-pyrazol-1-yl)-1-methylcyclopentanol], the IC50 (Table A-2) was below 30 nM.

The compound `CCN1CC(n2ncc(Nc3ncc(C(F)(F)F)c(C4CC4)n3)c2C)CCC1=O` (single isomer, unassigned) [Compound A-59] came in with an IC50 (Table A-2) below 30 nM.

`CCN1CC(n2ncc(Nc3ncc(C(F)(F)F)c(C4CC4)n3)c2C)CCC1=O` (single isomer, unassigned) [Compound A-60]: where the note is “Table A-2”, the IC50 is below 30 nM.

`CCN1CC(n2cc(Nc3ncc(C(F)(F)F)c(C4CC4)n3)c(C)n2)CCC1=O` (single isomer, unassigned) [Compound A-61] returned an IC50 (Table A-2) of 30 to 60 nM.

The compound `CCN1CC(n2cc(Nc3ncc(C(F)(F)F)c(C4CC4)n3)c(C)n2)CCC1=O` (single isomer, unassigned) [Compound A-62] had an IC50 (Table A-2) above 60 nM.

For the setting “Table A-2”, `FC(F)(F)c1cnc(Nc2cnn([C@H]3CN(C4COC4)CCC3(F)F)c2Cl)nc1C1CC1` (single isomer, unassigned) [Compound A-64, N-(5-chloro-1-(4,4-difluoro-1-(oxetan-3-yl)piperidin-3-yl)-1H-pyrazol-4-yl)-4-cyclopropyl-5-(trifluoromethyl)pyrimidin-2-amine] gave an IC50 of 30 to 60 nM.

`FC(F)(F)c1cnc(Nc2cnn([C@@H]3CN(C4COC4)CCC3(F)F)c2Cl)nc1C1CC1` (single isomer, unassigned) [Compound A-65, N-(5-chloro-1-(4,4-difluoro-1-(oxetan-3-yl)piperidin-3-yl)-1H-pyrazol-4-yl)-4-cyclopropyl-5-(trifluoromethyl)pyrimidin-2-amine]: under “Table A-2”, the IC50 is below 30 nM.

For the setting “Table A-2”, `Cc1nn([C@@H]2CCn3ccnc32)cc1Nc1ncc(C(F)(F)F)c(C2CC2)n1` (single isomer, unassigned) [Compound A-78] came in with a half-maximal inhibitory concentration (IC50) above 60 nM.

For the compound `Cc1nn([C@H]2CCn3ccnc32)cc1Nc1ncc(C(F)(F)F)c(C2CC2)n1` (single isomer, unassigned) [Compound A-79], the IC50 (Table A-2) is below 30 nM.

For the compound `Cc1nn([C@@H]2CCn3cnnc32)cc1Nc1ncc(C(F)(F)F)c(C2CC2)n1` (single isomer, unassigned) [Compound A-82], the IC50 (Table A-2) was below 30 nM.

As to `Cc1nn([C@H]2CCn3cnnc32)cc1Nc1ncc(C(F)(F)F)c(C2CC2)n1` (single isomer, unassigned) [Compound A-83], the IC50 (Table A-2) was below 30 nM.

As for `CNc1nc(Nc2cn(C3CCn4ccnc43)nc2C)ncc1C(F)(F)F` (single isomer, unassigned) [Compound D-3, N2-[1-[6,7-dihydro-5H-pyrrolo[1,2-a]imidazol-7-yl]-3-methyl-1H-pyrazol-4-yl]-N4-methyl-5-(trifluoromethyl)pyrimidine-2,4-diamine], the IC50 (Table D-4) was above 60 nM.

`CNc1nc(Nc2cn(C3CCn4ccnc43)nc2C)ncc1C(F)(F)F` (single isomer, unassigned) [Compound D-4, N2-[1-[6,7-dihydro-5H-pyrrolo[1,2-a]imidazol-7-yl]-3-methyl-1H-pyrazol-4-yl]-N4-methyl-5-(trifluoromethyl)pyrimidine-2,4-diamine] registered an IC50 (Table D-4) below 30 nM.

In turn, `CCNc1nc(Nc2cn(C3CCn4ccnc43)nc2C)ncc1C(F)(F)F` (single isomer, unassigned) [Compound D-23, N2-(1-(6,7-dihydro-5H-pyrrolo[1,2-a]imidazol-7-yl)-3-methyl-1H-pyrazol-4-yl)-N4-ethyl-5-(trifluoromethyl)pyrimidine-2,4-diamine] came in with an IC50 (Table D-4) above 60 nM.

`CCNc1nc(Nc2cn(C3CCn4ccnc43)nc2C)ncc1C(F)(F)F` (single isomer, unassigned) [Compound D-24, N2-(1-(6,7-dihydro-5H-pyrrolo[1,2-a]imidazol-7-yl)-3-methyl-1H-pyrazol-4-yl)-N4-ethyl-5-(trifluoromethyl)pyrimidine-2,4-diamine] returned an IC50 (Table D-4) below 30 nM.

As for `Cc1nn(C(C)(C)C#N)cc1Nc1ncc(C(F)(F)F)c(C2CC2)n1` [Compound A-1, 2-[4-[(5-trifluoromethyl-4-cyclopropyl-pyrimidin-2-yl)amino]-3-methyl-pyrazol-1-yl]-2-methyl-propanenitrile], the IC50 (Table A-2) is below 30 nM.

`Cc1nn(C(C)(C)C#N)cc1Nc1ncc(Cl)c(C2CC2)n1` [Compound A-2, 2-[4-[(5-chloro-4-cyclopropyl-pyrimidin-2-yl)amino]-3-methyl-pyrazol-1-yl]-2-methyl-propanenitrile] displayed an IC50 (Table A-2) below 30 nM.

In turn, `Cc1nn(C(C)(C)C#N)cc1Nc1ncc(C#N)c(C2CC2)n1` [Compound A-3, 2-[[1-(1-cyano-1-methyl-ethyl)-3-methyl-pyrazol-4-yl]amino]-4-cyclopropyl-pyrimidine-5-carbonitrile] came in with an IC50 (Table A-2) above 60 nM.

Regarding `Cc1nn(C(C)(C)C#N)cc1Nc1ncc(C(F)(F)F)c(C2=CCCC2)n1` [Compound A-4, 2-[4-[[4-(cyclopenten-1-yl)-5-(trifluoromethyl)pyrimidin-2-yl]amino]-3-methyl-pyrazol-1-yl]-2-methyl-propanenitrile], where the note is “Table A-2”, the IC50 was 30 to 60 nM.

Turning to `Cn1nc(C(C)(C)C#N)cc1Nc1ncc(C(F)(F)F)c(C2CC2)n1` [Compound A-5, 2-(5-((4-cyclopropyl-5-(trifluoromethyl)pyrimidin-2-yl)amino)-1-methyl-1H-pyrazol-3-yl)-2-methylpropanenitrile], the IC50 (Table A-2) was in the range of 30 to 60 nM.

As to `Cc1nn(S(C)(=O)=O)cc1Nc1ncc(C(F)(F)F)c(C2CC2)n1` [Compound A-7, 4-cyclopropyl-N-(3-methyl-1-methylsulfonyl-pyrazol-4-yl)-5-(trifluoromethyl)pyrimidin-2-amine], the IC50 (Table A-2) is below 30 nM.

Turning to `Cc1nn(C(C)(C)c2ncn(C)n2)cc1Nc1ncc(C(F)(F)F)c(C2CC2)n1` [Compound A-8, 4-cyclopropyl-N-(3-methyl-1-(2-(1-methyl-1H-1,2,4-triazol-3-yl)propan-2-yl)-1H-pyrazol-4-yl)-5-(trifluoromethyl)pyrimidin-2-amine], the IC50 (Table A-2) is below 30 nM.

For the setting “Table A-2”, `Cc1nn(C(C)(C)C#N)cc1Nc1ncc(C(F)(F)F)c(-c2cnn(C)c2)n1` [Compound A-9, 2-methyl-2-(3-methyl-4-((4-(1-methyl-1H-pyrazol-4-yl)-5-(trifluoromethyl)pyrimidin-2-yl)amino)-1H-pyrazol-1-yl)propanenitrile] had an IC50 of 30 to 60 nM.

For `Cc1nn(C(C)(C)C#N)cc1Nc1ncc(C(F)(F)F)c(C2CCCC2)n1` [Compound A-10, 2-[4-[[4-cyclopentyl-5-(trifluoromethyl)pyrimidin-2-yl]amino]-3-methyl-pyrazol-1-yl]-2-methyl-propanenitrile], for the setting “Table A-2”, the IC50 was above 60 nM.

Compound `Cc1nn(C(C)(C)C#N)cc1Nc1ncc(C(F)(F)F)c(C2CCC2)n1` [Compound A-11, 2-[4-[[4-cyclobutyl-5-(trifluoromethyl)pyrimidin-2-yl]amino]-3-methyl-pyrazol-1-yl]-2-methyl-propanenitrile] registered an IC50 (Table A-2) of 30 to 60 nM.

The compound `Cc1nn(C2COC2)cc1Nc1ncc(C(F)(F)F)c(C2CC2)n1` [Compound A-14, 4-cyclopropyl-N-[3-methyl-1-(oxetan-3-yl)pyrazol-4-yl]-5-(trifluoromethyl)pyrimidin-2-amine] came in with an IC50 (Table A-2) below 30 nM.
